The source of these data is ChEMBL document CHEMBL3632586, “Designing, synthesis of selective and high-affinity chalcone-benzothiazole hybrids as Brugia malayi thymidylate kinase inhibitors: In vitro validation and docking studies” (Eur J Med Chem, 2015).

In brackets after ≈: the same amount, converted by molar mass.

The nature of data set [1]: Inhibition of recombinant Brugia malayi TMK using dTMP as substrate by pyruvate kinase/lactate dehydrogenase coupled assay.
Data set [2] deals with Brugia malayi. As to the kind of experiment: Antifilarial activity against Brugia malayi microfilariae assessed as motility reduction at 5 uM/ml after 1 hr by microscopic analysis. The format is functional.
Data set [3] deals with Brugia malayi. Briefly: Antifilarial activity against adult Brugia malayi assessed as reduction in viability at 1.25 uM/ml after 24 to 48 hrs by MTT assay. The class given is functional.
Data set [4] concerns Brugia malayi. Briefly: Antifilarial activity against adult Brugia malayi assessed as reduction in viability at 0.15 uM/ml after 24 to 48 hrs by MTT assay. The class given is functional, organism-based. On the technique in general: Tetrazolium assays rely on reduction of a dye to a coloured formazan, in cell work by metabolically active cells.
In data set [5] the test system is Brugia malayi. As to the kind of experiment: Antifilarial activity against Brugia malayi microfilariae assessed as motility reduction at 10 uM/ml after 1 hr by microscopic analysis. The class given is functional.
The subject of data set [6] is Brugia malayi. As to the kind of experiment: Antifilarial activity against adult Brugia malayi assessed as motility reduction at 0.6 uM/ml after 1 hr by microscopic analysis. The format is functional, organism-based.
Data set [7] concerns Brugia malayi. Briefly: Antifilarial activity against Brugia malayi microfilariae assessed as motility reduction at 0.3 uM/ml after 1 hr by microscopic analysis. The format is functional, organism-based.
Data set [8] relates to Brugia malayi. As to the kind of experiment: Antifilarial activity against adult Brugia malayi assessed as reduction in viability at 2.5 uM/ml after 24 to 48 hrs by MTT assay. The class given is functional.
For data set [9], the system named is Brugia malayi. Briefly: Antifilarial activity against Brugia malayi microfilariae assessed as motility reduction at 0.15 uM/ml after 1 hr by microscopic analysis. The format is functional, organism-based.
Data set [10] relates to Brugia malayi. Briefly: Antifilarial activity against Brugia malayi microfilariae assessed as motility reduction at 1.25 uM/ml after 1 hr by microscopic analysis. The class given is functional.
The test system of data set [11] is Brugia malayi. As to the kind of experiment: Antifilarial activity against Brugia malayi microfilariae assessed as motility reduction at 0.6 uM/ml after 1 hr by microscopic analysis. The format is functional, organism-based.
Data set [12] concerns Brugia malayi. Briefly: Antifilarial activity against adult Brugia malayi assessed as reduction in viability at 0.3 uM/ml after 24 to 48 hrs by MTT assay. The format is functional, organism-based.
Data set [13] has as its system Brugia malayi. Briefly: Antifilarial activity against adult Brugia malayi assessed as motility reduction after 1 hr by microscopic analysis. The format is functional, organism-based.
Data set [14] has as its system Brugia malayi. Briefly: Antifilarial activity against adult Brugia malayi assessed as reduction in viability at 0.6 uM/ml after 24 to 48 hrs by MTT assay. The class given is functional, organism-based.
Data set [15] concerns Brugia malayi. Briefly: Antifilarial activity against adult Brugia malayi assessed as motility reduction at 2.5 uM/ml after 1 hr by microscopic analysis. The format is functional.
For data set [16], the system named is Brugia malayi. Briefly: Antifilarial activity against adult Brugia malayi assessed as reduction in viability at 5 uM/ml after 24 to 48 hrs by MTT assay. The format is functional.
For data set [17], the system named is Brugia malayi. As to the kind of experiment: Antifilarial activity against adult Brugia malayi assessed as motility reduction at 0.15 uM/ml after 1 hr by microscopic analysis. The format is functional, organism-based.
Data set [18] has as its system Brugia malayi. As to the kind of experiment: Antifilarial activity against adult Brugia malayi assessed as reduction in viability at 10 uM/ml after 24 to 48 hrs by MTT assay. The format is functional.
In data set [19] the test system is Brugia malayi. Briefly: Antifilarial activity against Brugia malayi microfilariae assessed as motility reduction at 2.5 uM/ml after 1 hr by microscopic analysis. The format is functional.
Data set [20] deals with Brugia malayi. Briefly: Antifilarial activity against adult Brugia malayi assessed as motility reduction at 1.25 uM/ml after 1 hr by microscopic analysis. The format is functional.
Data set [21] relates to Brugia malayi. Briefly: Antifilarial activity against adult Brugia malayi assessed as motility reduction at 0.3 uM/ml after 1 hr by microscopic analysis. The class given is functional, organism-based.
Data set [22] concerns Brugia malayi. As to the kind of experiment: Antifilarial activity against adult Brugia malayi assessed as motility reduction at 10 uM/ml after 1 hr by microscopic analysis. The class given is functional.
Data set [23] has as its system Brugia malayi. As to the kind of experiment: Antifilarial activity against Brugia malayi microfilariae assessed as motility reduction after 1 hr by microscopic analysis. The format is functional, organism-based.
In data set [24] the test system is Brugia malayi. As to the kind of experiment: Antifilarial activity against adult Brugia malayi assessed as motility reduction at 5 uM/ml after 1 hr by microscopic analysis. The class given is functional.
The nature of data set [25]: Therapeutic index, ratio of CC50 for monkey VERO cells to IC50 for adult Brugia malayi. The class given is cell-based. To be noted: for selectivity ratio: Vero cells, read-out: Ratio CC50/IC50.
In data set [26] the test system is Brugia malayi. As to the kind of experiment: Antifilarial activity against adult Brugia malayi assessed as reduction in viability at 0.625 uM/ml after 24 to 48 hrs by MTT assay. The class given is functional.
A short description of data set [27]: Therapeutic index, ratio of CC50 for monkey VERO cells to IC50 for Brugia malayi microfilariae. The format is cell-based. To be noted: for selectivity ratio: Vero cells, read-out: Ratio CC50/IC50.
Data set [28] relates to Brugia malayi. As to the kind of experiment: Antifilarial activity against Brugia malayi microfilariae assessed as motility reduction at 0.625 uM/ml after 1 hr by microscopic analysis. The class given is functional.
Data set [29] deals with Brugia malayi. As to the kind of experiment: Antifilarial activity against adult Brugia malayi assessed as motility reduction at 0.625 uM/ml after 1 hr by microscopic analysis. The class given is functional.
Data set [30] is described as follows: Cytotoxicity against African green monkey Vero cells after 72 hrs by resazurin dye-based fluorometric analysis. To be noted: chlorocebus sabaeus. The format is cell-based.

Usually Ki stands for the dissociation constant of the complex between target and ligand, obtained from inhibition or displacement. On to `Cc1ccc(C(=O)/C=C/c2cc(/C=N/Nc3nc4ccccc4s3)cc(C(C)(C)C)c2O)cc1`, for which the Ki in [1] came to 4.69 µM.
On the same count and under the same terms, with `CC(C)(C)c1cc(/C=N/Nc2nc3ccccc3s2)cc(/C=C/C(=O)c2ccc(F)cc2)c1O` the figure was 3.17 µM; with `CC(C)c1cc(/C=N/Nc2nc3ccccc3s2)cc(/C=C/C(=O)c2ccc(Cl)cc2)c1O`, 22.8 µM; with `CCCc1cc(/C=N/Nc2nc3ccccc3s2)cc(/C=C/C(=O)c2ccc(OC)c(OC)c2)c1O`, 27.1 µM.
Still for that read-out and setting: for `CCCc1cc(/C=N/Nc2nc3ccccc3s2)cc(/C=C/C(=O)c2ccc(Cl)cc2)c1O` the value was 26.6 µM; for `Cc1cc(/C=N/Nc2nc3ccccc3s2)cc(/C=C/C(=O)c2ccccc2)c1O`, 16.5 µM.
Broadly, the inhibition is the change of the read-out against control, counted positive when it falls. On to IVERMECTIN [listing 1 of 2 here], for which the inhibition in data set [2] stood at 75%; in data set [3] it was 34.9%; in data set [4], 15.7%; in data set [5], 100%; in data set [6], 100%; in data set [7], 0%. The inhibition turned out to be 50.5% in [8]; 0% in data set [9]; 75% in [10]; 50% in [11]; 10.7% in data set [12]; 22.9% in data set [14]. Besides, the inhibition in [15] was found to be 100%; in data set [16] it was 62.9%; in [17] it was 1%; in data set [18], 76%; in data set [19], 75%; in [20], 100%. For the same compound, the inhibition in data set [21] was 50%; in data set [22] it was 100%; in [24] it was 100%. Moreover, the MIC in data set [13] is 8.9 µM; in data set [23], 10 µM.
Turning to `COc1ccc(C(=O)/C=C/c2cc(/C=N/Nc3nc4ccccc4s3)cc(C(C)C)c2O)cc1`, in data set [1], the Ki came out at 3.09 µM.
What is called IC50 is the concentration at which inhibition is half-maximal. The CC50 is the concentration that lowers cell viability or growth by half. As for `CC(C)c1cc(/C=N/Nc2nc3ccccc3s2)cc(/C=C/C(=O)c2cccs2)c1O`, the inhibition at 5 µM in data set [2] came out at 100%; in data set [16] it was 85%; in data set [24], 100%. Further, the inhibition at 1.25 µM in data set [3] came to 9.3%; in [10], 50%; in data set [20] it was 1%. The selectivity ratio in data set [25] was 44.9; in data set [27], 58.5. For the same compound, the values for the inhibition at 0.625 µM in data set [26], in data set [28] and in data set [29] were 8.7%, 1% and 1%, respectively. Also, the inhibition at 2.5 µM amounted to 40.3% in data set [8], 50% in [15] and 75% in [19]. The Ki in data set [1] was found to be 2.02 µM. For the same compound, the IC50 in data set [13] amounted to 2.12 µM; in data set [23], 1.63 µM. Besides, the MIC in data set [13] and in [23] was 5 µM (≈ 2.24 µg/mL) throughout. The same compound gave a CC50 at 72 h in [30] of 95.3 µM.
For the compound `COc1ccc(C(=O)/C=C/c2cc(/C=N/Nc3nc4ccccc4s3)cc(C(C)C)c2O)cc1OC`, the Ki in data set [1] was 50.6 µM.
The same measure, in the same setting: with `CCC(C)c1cc(/C=N/Nc2nc3ccccc3s2)cc(/C=C/C(=O)c2ccc(F)cc2)c1O` (stereo not drawn) the figure was 7.91 µM.
Turning to IVERMECTIN [listing 2 of 2 here], the results for the “Ratio CC50/IC50” value in [25] (vero) and in data set [27] (vero) were 29.5 and 13.28, respectively.
For the compound `CCC(C)c1cc(/C=N/Nc2nc3ccccc3s2)cc(/C=C/C(=O)c2ccc(OC)cc2)c1O` (stereo not drawn), in data set [1], the Ki was 4.89 µM.
As for `CCc1cc(/C=N/Nc2nc3ccccc3s2)cc(/C=C/C(=O)c2ccccc2)c1O`, the inhibition at 5 µM in [2] is 75%; in data set [16], 48%; in data set [24], 50%. For the same compound, the inhibition at 1.25 µM in [3] stood at 10.5%; in [10], 1%; in data set [20] it was 1%. Further, the selectivity ratio in data set [25] turned out to be 11.2; in data set [27], 18.4. Besides, the inhibition at 10 µM in data set [5] was found to be 100%; in [18] it was 90.4%; in data set [22] it was 100%. For the same compound, the values for the inhibition at 2.5 µM in data set [8], in data set [15] and in data set [19] were 30%, 1% and 75%, respectively. The Ki in [1] came to 2.49 µM. For the same compound, the IC50 in data set [13] was 4.34 µM; in data set [23] it was 2.64 µM. Besides, the MIC in data set [13] and in data set [23] was 10 µM (≈ 4.28 µg/mL) each time. In [30], this compound came in with a CC50 at 72 h of 48.6 µM.
As to `CCc1cc(/C=N/Nc2nc3ccccc3s2)cc(/C=C/C(=O)c2ccc(OC)cc2)c1O`, the Ki in [1] turned out to be 30.4 µM.
On the same count and under the same terms, for `CC(C)(C)c1cc(/C=N/Nc2nc3ccccc3s2)cc(/C=C/C(=O)c2ccccc2)c1O` the value was 20.3 µM; for `CC(C)c1cc(/C=N/Nc2nc3ccccc3s2)cc(/C=C/C(=O)c2ccc(F)cc2)c1O`, 21.6 µM.
